For 30 compounds, IC50 results are on record in patent US6288082A, “Substituted 3-cyanoquinolines” (priority 1999, dated 2001).

This assay concerns the target Mitogen Activated Protein Kinase (Mek-Erk). The assay is described as follows: Mitogen Activated Protein Kinase (MAPK) assay, coupled Mek-Erk. The format is biochemical, human. The conditions noted are these: MBP or Myc peptide substrate, pH 7.4. Here is the method: Mitogen Activated Protein Kinase (MAPK) Assay
To evaluate inhibitors of the MAP (mitogen activated protein) kinase a two component coupled standard pharmacological test procedure, which measures phosphorylation of a serine/threonine residue in an appropriate sequence in the substrate in the presence and absence of a putative inhibitor, was used. Recombinant human MEK 1 (MAPKK) was first used to activate recombinant human ERK2 (MAPK) and the activated MAPK (ERK) was incubated with substrate (MBP peptide or MYC peptide) in the presence of ATP, Mg^+2 and radiolabeled ^33 P ATP. The phosphorylated peptide was captured on a P 81 phosphocellulose filter (paper filter or embedded in microtiter plate) washed and counted by scintillation methods.
The peptide substrates used in the assay are MBP, peptide substrate ([…]), or synthetic Myc substrate, ([…]·5 TFA. The recombinant enzymes used were prepared as GST fusion proteins of human ERK 2 and human MEK 1. Inhibitor samples were prepared as 10×stocks in 10% DMSO and an appropriate aliquot was used to deliver either 10 ug/ml for a single point screening dose or 100, 10, 1, and 0.1 uM final concentration for a dose response curve. Final DMSO concentrations were less than or equal to 1%.
The reaction was run as follows in 50 mM Tris kinase buffer, pH 7.4 in a reaction volume of 50 ul. The appropriate volume of kinase buffer and inhibitor sample was added to the tube. Appropriate dilution of enzyme was delivered to give 2-5 ug recombinant MAPK (Erk ) per tube. The inhibitor was incubated with MAPK (Erk) for 30 min at 0 deg. C. Recombinant Mek (MAPKK) (0.5-2.5 ug) or fully activated Mek (0.05-0.1 units) was added to activate the Erk and incubated for 30 min at 30° C. Then substrate and gamma ^33 P ATP was were added to give a final concentration of 0.5-1 mM MBPP or 250-500 uM Myc; 0.2-0.5 uCi gamma P 33 ATP/tube; 50 μM ATP final concentration. Samples were incubated at 30° C. for 30 minutes and the reaction was stopped by adding 25 μl of ice cold 10% TCA. After samples were chilled on ice for 30 min, 20 μl of sample was transferred onto P 81 phosphocellulose filter paper or appropriate MTP with embedded P 81 filter. Filter papers or MTP were washed 2 times with a large volume of 1% acetic acid, then 2 times with water. The filters or MTP were briefly air dried before addition of scintillant and samples were counted in the appropriate scintillation counter set up for reading ^33 P isotope. Samples included a positive control (activated enzyme plus substrate); a no enzyme control; a no substrate control; samples with different concentrations of putative inhibitor; and samples with reference inhibitors (other active compounds or non-specific inhibitors such as staurosporine or K252 B).
The raw data was captured as cpm. Sample replicates were averaged and corrected for background count. Mean cpm data was tabulated by group and % inhibition by a test compound was calculated as (corrected cpm control-corrected. cpm sample/control)×100=% inhibition. […] The results obtained for representative compounds of this invention are listed in TABLE 2 where there may be separate entries for the same compound; this is an indication that the compound was evaluated more than one time.

Broadly, the IC50 is the concentration that gives 50% inhibition. Low values mean greater potency, high ones weaker potency.

Where “and” joins values, the source holds several entries; their conditions need not be identical. Equal values may be shown once. Where a name gives a salt, the structure may show the parent alone. Where only a bound is given, the exact number is not on record here.

Turning to `CCOc1cc2ncc(C#N)c(Nc3ccc4ncsc4c3)c2cc1OCC` [Example 97, 4-(Benzothiazol-6-ylamino)-6,7-diethoxy-quinoline-3-carbonitrile HCl Salt], the IC50 came out at 55 µM.

In the case of `COc1cc2ncc(C#N)c(Nc3ccc4cn[nH]c4c3)c2cc1OC` [Example 102, 6,7-Dimethoxy-4-(1H-indazol-6-ylamino)-quinoline-3-carbonitrile], the IC50 worked out at 0.5 µM. Against the preceding compound, the IC50 is about 110-fold lower. Still for that read-out and setting: then `CCOc1cc2ncc(C#N)c(Nc3ccc4c(c3)C(=O)NC4=O)c2cc1OCC` [Example 104, 4-(1,3-Dioxo-2,3-dihydro-1H-isoindol-5-ylamino)-6,7-diethoxy-quinoline-3-carbonitrile], with 35 µM; and `CCOc1cc2ncc(C#N)c(Nc3ccc4[nH]c(=O)oc(=O)c4c3)c2cc1OCC` [Example 109, 4-(2,4-Dioxo-1,4-dihydro-2H-benzo[d][1,3]oxazin-6-ylamino)-6,7-diethoxy-quinoline-3-carbonitrile], with above 100 µM. Compound `CCOc1cc2ncc(C#N)c(Nc3ccc4c(c3)S(=O)(=O)C=C4)c2cc1OCC` [Example 112, 4-(1,1-Dioxo-1H-benzo[b]thiophen-6-ylamino)-6,7-diethoxy-quinoline-3-carbonitrile] gave an IC50 above 100 µM.

For `N#Cc1cnc2cc3c(cc2c1Nc1ccc2cn[nH]c2c1)OCCO3` [Example 125, 9-(1H-Indazol-6-ylamino)-2,3-dihydro[1,4]dioxino[2,3-g]quinoline-8-carbonitrile], it took 35 µM to reach half-maximal inhibition (IC50). Still for that read-out and setting: under `CCOc1cc2c(Nc3ccc4cn[nH]c4c3)c(C#N)cnc2cc1OC` [Example 126, 6-Ethoxy-4-(1H-indazol-6-ylamino)-7-methoxyquinoline-3-carbonitrile] stands above 100 µM; under `COc1cc2c(Nc3ccc4cn[nH]c4c3)c(C#N)cnc2c(OC)c1OC` [Example 128, 4-(1H-Indazol-6-ylamino)-6,7,8-trimethoxy-quinoline-3-carbonitrile], > 100 µM and 100 µM; under `COc1cc2ncc(C#N)c(Nc3ccc4c(C)cc(=O)[nH]c4c3)c2cc1OC` [Example 129, 6,7-Dimethoxy-4-(4-methyl-2-oxo-1,2-dihydro-quinolin-7-ylamino)-quinoline-3-carbonitrile], above 100 µM. Still for that read-out and setting: then `COc1cc2ncc(C#N)c(Nc3ccc4sc(C)nc4c3)c2cc1OC` [Example 130, 6,7-Dimethoxy-4-(2-methyl-benzothiazol-5-ylamino)-quinoline-3-carbonitrile], with above 100 µM; and `COc1cc2ncc(C#N)c(Nc3ccc4[nH]c(=O)sc4c3)c2cc1OC` [Example 131, 6,7-Dimethoxy-4-(2-oxo-2,3-dihydro-benzothiazol-6-ylamino)-quinoline-3-carbonitrile], with above 100 µM; and `COc1cc2ncc(C#N)c(Nc3cccc4ncccc34)c2cc1OC` [Example 132, 6,7-Dimethoxy-4-(quinolin-5-ylamino)-quinoline-3-carbonitrile], with 90 µM. Same read-out and setting: under `COc1cc2ncc(C#N)c(Nc3cccc4cnccc34)c2cc1OC` [Example 133, 4-(Isoquinolin-5-ylamino)-6,7-dimethoxy-quinoline-3-carbonitrile] stands 90 µM; under `COc1cc2ncc(C#N)c(Nc3cccc4cccnc34)c2cc1OC` [Example 134, 6,7-Dimethoxy-4-(quinolin-8-ylamino)-quinoline-3-carbonitrile], above 100 µM; under `COc1cc2ncc(C#N)c(Nc3ccc(O)c4ncccc34)c2cc1OC` [Example 135, 4-(8-Hydroxy-quinolin-5-ylamino)-6,7-dimethoxy-quinoline-3-carbonitrile], above 100 µM. `COc1ccc(OC)c2c(Nc3ccc4cn[nH]c4c3)c(C#N)cnc12` [Example 138, 4-(1H-Indazol-6-ylamino)-5,8-dimethoxy-quinoline-3-carbonitrile] showed a 50% inhibitory concentration (IC50) above 100 µM. On the same count and under the same terms, under `COc1cc2ncc(C#N)c(Nc3ccc4cn[nH]c4c3)c2cc1OCCCN1CCOCC1` [Example 139, 4-(1H-Indazol-6-ylamino)-7-methoxy-6-(3-morpholine-4-yl-propoxy)-quinoline-3-carbonitrile hydrochloride] stands 15 µM. In the case of `COc1cc2ncc(C#N)c(Nc3ccc4[nH]nnc4c3)c2cc1OCCCN1CCOCC1` [Example 140, 4-(3H-Benzotriazol-5-ylamino)-7-methoxy-6-(3-morpholin-4-yl-proloxy)-quinoline-3-carbonitrile hydrochloride], for the setting “hydrochloride”, the concentration for half-maximal inhibition (IC50) is 22 µM and 15 µM. Take `COc1ccc2ncc(C#N)c(Nc3ccc4cn[nH]c4c3)c2c1` [Example 141, 4-(1H-Indazol 6-ylamino)-6-methoxy-quinoline-3-carbonitrile]: half-maximal inhibition (IC50) required 3 µM. Still for that read-out and setting: then `COc1ccc2ncc(C#N)c(Nc3ccc4nn[nH]c4c3)c2c1` [Example 142, 4-(3H-Benzotriazol-5-ylamino)-6-methoxy-quinoline-3-carbonitrile], with 30 µM; and `COc1ccc2c(Nc3ccc4cn[nH]c4c3)c(C#N)cnc2c1` [Example 143, 4-(1H-Indazol-6-ylamino)-7-methoxy-quinoline-3-carbonitrile], with 6 µM.

For `COc1ccc2c(Nc3ccc4[nH]nnc4c3)c(C#N)cnc2c1` [Example 144, 4-(3H-benzotriazol-5-ylamino)-7-methoxy-quinoline-3-carbinitile], the half-maximal inhibitory concentration (IC50) is above 100 µM. The same measure, in the same setting: under `COc1ccc2c(Nc3ccc4[nH]ccc4c3)c(C#N)cnc2c1` [Example 146, 4-(1H-Indol-5-ylamino)-7-methoxy-quinoline-3-carbonitrile] stands 3 µM; under `COc1cccc2c(Nc3ccc4cn[nH]c4c3)c(C#N)cnc12` [Example 148, 4-(1H-Indazol-6-ylamino)-8-methoxy-quinoline-3-carbonitrile], above 100 µM. `COc1cccc2c(Nc3ccc4nn[nH]c4c3)c(C#N)cnc12` [Example 149, 4-(3H-benzotriazol-5-ylamino)-8-methoxy-quinoline-3-carbonitrile] gave an IC50 above 100 µM. The compound `COc1cc2ncc(C#N)c(Nc3ccc4[nH]c(C)nc4c3)c2cc1OC` [Example 152, 6,7-Dimethoxy-4-(2-methyl-1H-benzoimidazol-5-ylamino)-quinoline-3-carbonitrile] displayed an IC50 above 100 µM. Same read-out and setting: under `COc1cc2ncc(C#N)c(Nc3ccc4ncccc4c3)c2cc1OC` [Example 153, 6,7-Dimethoxy-4-(quinoline-6-ylamino)-quinoline-3-carbonitrile] stands above 100 µM; under `COc1cc2ncc(C#N)c(Nc3cccc4c3CCCC4)c2cc1OC` [Example 155, 6,7-Dimethoxy-4-(5,6,7,8,-tetrahydro-naphthalen-1-ylamino)-quinoline-3-carbonitrile], 4 µM. Still for that read-out and setting: then `COc1cc2c(Nc3ccc4nn[nH]c4c3)c(C#N)cnc2c(OC)c1OC` [Example 156, 4-(3H-Benzotriazol-5-ylamino)-6,7,8-Trimethoxy-quinoline-3-carbonitrile], with 35 µM. Still for that read-out and setting: then `COc1cc2c(Nc3ccc4cn[nH]c4c3)c(C#N)cnc2cc1OCCN(C)C` [Example 167, 7-(2-Dimethylaminoethoxy)-4-(1H-indazol-6-ylamino)-6-methoxyquinoline-3-carbonitrile], with 8 µM.
